Measurements as given in patent US9393198B2 (SIGNPATH PHARMA INC., priority 2010, dated 2016).

What was measured:
[1] = system: sodium arsenite neuro-behavioral neurotransmission toxicity; details: rats, arsenite 20 mg/kg for 28 days; oral curcumin 100 mg/kg daily × 28 days; cited from earlier work
[2] = system: chronic unpredictable mild stress (CUMS); details: CUMS rats; cited from earlier work
[3] = system: homocysteine directly injected into the hippocampus; details: intraperitoneal curcumin; cited from earlier work
6-OHDA toxicity = details: rat; cited from earlier work
[4] = system: Alzheimer's Disease mice (ALCL3 orally and D-galactose IP for 90 days); details: cited from earlier work
[5] = Brain tissue and plasma curcumin levels in rats after intravenous bolus injection (HPLC); format: in vivo, Sprague-Dawley rats; details: intravenous curcumin formulations
[6] = system: murine multipotent neural progenitor cells (NPC); details: cited from earlier work
PC12 cells = details: cultured PC12 cells; cited from earlier work

For `COc1cc(C=CC(=O)CC(=O)C=Cc2ccc(O)c(OC)c2)ccc1O` [curcumin, 1,7-bis(4-hydroxy-3-methoxyphenyl)-1,6-heptadiene-3,5-dione], the “Effect on arsenite-induced deleterious effects” value [1] is given as “counteracted”, the “Effect on chronic unpredictable mild stress (CUMS)” value [2] is given as “improves chronic unpredictable mild stress” and the “Activity against homocysteine injected into the hippocampus” value [3] is given as “neuroprotective activity”. For the same compound, the “Effect on 6-OHDA toxicity in striatum and Substantia Nigrum” value (6-OHDA toxicity) was “protects”, the “Memory ability, step-through test” value [4] was “improves the memory ability” and the “Curcumin detectible in the hippocampus, brainstem and striatum, share of dose” value [5] was “less than 0.5 % of the total injected dose”. The “Concentration that decreases proliferation of NPCs and cancer cells” value [6] was greater than 10 µM, the “Concentration that inhibits neurogenesis and neuroplasticity” value ([6]; hippocampus stem and neuronal progenitor cells, high concentration) was 10 µM and the “Concentration that enhances / stimulates hippocampal neurogenesis” value ([6]; hippocampus stem and neuronal progenitor cells, low concentration) was 500 nM. The “Concentration that increases NPC proliferation” value ([6]; ×24-48 h, NPC but not tumor cells) was 0.1 to 0.5 µM and the “Apoptosis induced by AlCl3” value (PC12 cells) was “inhibits apoptosis”.
